Assay results: patent US7414051B2, “Substituted-dihydro[1,4]oxazino[2,3,4-hi]indazole derivatives as 5-hydroxytryptamine-6 ligands” (Wyeth, priority 2006, dated 2008)
Structures can show the parent of a compound that is named as a salt.

Experiments:
[1] = molecular target: T1, human cloned 5-HT6 receptors (Homo sapiens, UniProt P50406); assay: 5-HT6 binding affinity, [3H]-LSD displacement, membranes of Hela cells expressing human cloned 5-HT6 receptors
T1 construct: expressed in transfected cells; host or cells: HeLa cells
Description: The affinity of test compounds for the serotonin 5-HT6 receptor was evaluated in the following manner. Cultured Hela cells expressing human cloned 5-HT6 receptors were harvested and centrifuged at low speed (1,000×g) for 10.0 minutes to remove the culture media. The harvested cells were suspended in half volume of fresh physiological phosphate buffered saline solution and recentrifuged at the same speed. This operation was repeated. The collected cells were then homogenized in ten volumes of 50 mM Tris.HCl (pH 7.4) and 0.5 mM EDTA. The homogenate was centrifuged at 40,000×g for 30.0 min and the precipitate was collected. The obtained pellet was resuspended in 10 volumes of Tris.HCl buffer and recentrifuged at the same speed. The final pellet was suspended in a small volume of Tris.HCl buffer and the tissue protein content was determined in aliquots of 10-25 μl volumes. Bovine Serum Albumin was used as the standard in the protein determination according to the method described in Lowry et al., J. Biol. Chem., 193: 265 (1951). The volume of the suspended cell membranes was adjusted to give a tissue protein concentration of 1.0 mg/ml of suspension. The prepared membrane suspension (10 times concentrated) was aliquoted in 1.0 ml volumes and stored at −70° C. until used in subsequent binding experiments.
Binding experiments were performed in a 96 well microtiter plate format, in a total volume of 200 μl. […] The test compounds were added in 20.0 μl volume.
The reaction was allowed to proceed in the dark for 120 minutes at room temperature, at which time, the bound ligand-receptor complex was filtered off on a 96 well unifilter with a Packard Filtermate® 196 Harvester. The bound complex caught on the filter disk was allowed to air dry and the radioactivity is measured in a Packard TopCount® equipped with six photomultiplier detectors, after the addition of 40.0 μl Microscint®-20 scintillant to each shallow well. The unifilter plate was heat-sealed and counted in a PackardTopCount® with a tritium efficiency of 31.0%.
Binding in the presence of varying concentrations of test compound was expressed as a percentage of specific binding in the absence of test compound. The results were plotted as log % bound versus log concentration of test compound. […] A linear regression line of data points was plotted, from which the IC50 value is determined and the Ki value is determined based upon the following equation: Ki=IC50/(1+L/KD) where L was the concentration of the radioactive ligand used and KD is the dissociation constant of the ligand for the receptor, both expressed in nM.

T1 sequence (P50406 whole entry): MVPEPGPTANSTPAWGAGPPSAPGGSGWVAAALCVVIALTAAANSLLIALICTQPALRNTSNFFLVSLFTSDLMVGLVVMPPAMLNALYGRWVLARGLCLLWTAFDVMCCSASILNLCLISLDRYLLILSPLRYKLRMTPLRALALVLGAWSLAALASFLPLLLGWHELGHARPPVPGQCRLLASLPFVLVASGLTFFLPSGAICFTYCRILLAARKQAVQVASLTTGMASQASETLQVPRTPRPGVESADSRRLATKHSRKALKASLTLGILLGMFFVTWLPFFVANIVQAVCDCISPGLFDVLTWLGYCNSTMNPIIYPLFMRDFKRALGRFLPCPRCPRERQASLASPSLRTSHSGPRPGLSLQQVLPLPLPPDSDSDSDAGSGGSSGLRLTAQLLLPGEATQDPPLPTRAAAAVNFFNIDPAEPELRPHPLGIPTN

Ki [1] [nM]	melting point [°C]	Compound
5.1	–	CNCCOc1cc2c3c(c1)c(S(=O)(=O)c1cccc4ccccc14)nn3CCO2 [Example 12, N-methyl-2-{[6-(1-naphthylsulfonyl)-2,3-dihydro[1,4]oxazino[2,3,4-hi]indazol-8-yl]oxy}ethanamine Hydrochloride]
–	> 225	CN1CCN(c2cc3c4c(c2)c(S(=O)(=O)c2cccc5ccccc25)nn4CCO3)CC1 (as salt: hydrochloride) [Example 6, 8-(4-Methylpiperazin-1-yl)-6-(1-naphthylsulfonyl)-2,3-dihydro[1,4]oxazino[2,3,4-hi]indazole Hydrochloride]
1	–	CN1CCN(c2cc3c4c(c2)c(S(=O)(=O)c2cccc5ccccc25)nn4CCO3)CC1 [Example 6, 8-(4-Methylpiperazin-1-yl)-6-(1-naphthylsulfonyl)-2,3-dihydro[1,4]oxazino[2,3,4-hi]indazole Hydrochloride]
14	127 to 129	O=S(=O)(c1cccc2ccccc12)c1nn2c3c(cc(OCCN4CCCC4)cc13)OCC2 [Example 15, 6-(1-Naphthylsulfonyl)-8-(2-pyrrolidin-1-ylethoxy)-2,3-dihydro[1,4]oxazino[2,3,4-hi]-indazole]
7.9	–	CN(C)CCOc1cc2c3c(c1)c(S(=O)(=O)c1cccc4ccccc14)nn3CCO2 [Example 13, N,N-Dimethyl-2-{[6-(1-naphthylsulfonyl)-2,3-dihydro[1,4]oxazino[2,3,4-hi]indazol-8-yl]oxy}ethanamine]
26	90 to 92	O=S(=O)(c1cccc2ccccc12)c1nn2c3c(cc(OCCN4CCCCC4)cc13)OCC2 [Example 14, 6-(1-Naphthylsulfonyl)-8-(2-piperidin-1-ylethoxy)-2,3-dihydro[1,4]oxazino[2,3,4-hi]-indazole]
